Results on one substance are retold here after patent US20100015126A1, “Methods of Binding of Cross-Beta Structures By Chaperones” (priority 2006, published 2010).

For experiment [1], the system named is human monocyte-derived dendritic cells. In words: FACS: binding of misfolded proteins and BiP to human monocyte-derived dendritic cells. The experiment is classed as cell-based. From the text:
In vitro generation of peripheral blood human monocyte-derived dendritic cells, and analyses for binding of misfolded proteins and BiP
Human DCs are generated from non-proliferating precursors selected from peripheral blood mononuclear cells (PBMCs), essentially by published methods (Sallustro and Lanzavecchia [1994], J. Exp. Med. 179 1109-1118). Relative abundant presence of CD1a, CD32, CD36, CD40, CD54, CD86, HLA-DR and CD206 and relative low content of CD14 positive, CD16 positive, CD64 positive, CD80 positive, CD83 positive and CD163 positive cells serve as a quality measure for the immature DCs. After obtaining the immature DCs upon stimulation with GM-CSF and IL-4, direct binding of misfolded proteins and BiP to the DCs is assessed by incubating 200.000 cells (2*10^6 cells/ml) for 30 minutes at 4° C. under metabolic arrested state, with 1) PBS, 2) 58 μg/ml BiP (830 nM), 4) 250 μg/ml BSA-AGE (3.6 μM), 5) BSA-AGE+BiP, 6) 250 μg/ml oxLDL, 7) oxLDL+BiP, 8) mixture of BiP-binding peptides 6BB8-11, 13 (see Table 5), 125 μg/ml+BiP, and 8) 62.5 μg/ml Aβ16-22, 62.5 μg/ml Aβ25-35+BiP. After the incubation and careful washing of the cells, binding of BiP, BSA-AGE and oxLDL is assessed with FACS, using primary antibodies monoclonal anti-FLAG antibody, monoclonal anti-glycated human fibronectin antibody 4B5 and rabbit serum with anti-human apoliprotein B-100 antibody (Dade Behring, Newark, Del., USA), and the appropriate FITC- or PE-labeled secondary antibody. Mean fluorescence intensity (MFI) ratio's are determined by measuring background fluorescence.
A general note: Flow cytometry measures light scatter and fluorescence of single cells or particles in a stream.

In the next experiment the test system is HUVECs. Description: FACS: binding of misfolded proteins and BiP to HUVECs. Type of experiment: cell-based, human. How it is done:
For these experiments HUVECs were isolated by trypsinization. After trypsinization cells were collected in RPMI 1640, containing P/S and 10% FCS and centrifuged. After centrifugation cells were resuspended in RPMI medium without FCS at a concentration of 1.250.000 cells/250 μl. Individual 4-ml tubes (polypropylene, Greiner), containing 250 μl cell suspensions were made. To each tube 75 μl of a sample, containing either, • a. buffer (PBS) only, or • b. 25 μl PBS+50 μl BiP (1.16 mg/ml), or • c. 50 μl buffer with 25 μl oxLDL (1 mg/ml), or • d. 74 μl buffer with 1 μl BSA-AGE (25 mg/ml), or • e. 24 μl PBS+1 μl BSA-AGE (25 mg/ml)+50 μl BiP (1.16 mg/ml), or • f. 25 μl oxLDL (1 mg/ml)+50 μl BiP (1.16 mg/ml), • g. 1.6 μl dIgIV-65 (20 mg/ml)+73.4 μl PBS • h. […]
was added. Subsequently, the cells were incubated with the sample for approximately 30 minutes at 4° C. Next, cells were pelleted by centrifugation and the supernatant was discarded. Cells were washed subsequently with FACS buffer (PBS/0.5% BSA/0.05% m/v NaN3) at 4° C. and resuspended in FACS-buffer at approximately 1*10^5 cells/100 μl for subsequent analysis. Cell death was determined by adding 3 μl 7-aminoactinomycin D (7AAD) solution (prepared according to standard procedures). Binding of sample BSA-AGE (see elsewhere in this application for preparation details) was determined with anti-AGE monoclonal antibody 4B5 (10 μg/ml) and, after washing, with goat anti-mouse PE secondary antibodies (Jackson Immunoresearch, West Grove, USA). Binding of BSA-AGE was also assessed using the intrinsic fluorescence of BSA-AGE in the PE channel. Binding of oxidized LDL (oxLDL, oxidized for 56% following incubation with FeSO4; specific enhancement of Thioflavin T fluorescence) was determined with rabbit serum with anti-ApoB100 polyclonal antibodies at a concentration of 160 μg/ml and, after washing the cells, with FITC-labelled goat anti-rabbit antibodies (1:200, Jackson). Binding of dIgIV-65 was assessed by using anti-Human IgG antibody. BiP binding was determined using the earlier mentioned anti-FLAG antibody (M2, Sigma-Aldrich).

With BSA-AGE, the “Binding to DCs (MFI ratio), Misfolded protein” value in experiment [1] (FACS, human dendritic cells, detection of the misfolded protein, signal divided by background signal) is on record as 4.0. Further, the “Binding of misfolded protein to DCs” value in experiment [1] (absence of BiP, 250 μg/ml) is on record as “bind”. Moreover, the “Amount of BiP bound to DCs when added together with misfolded protein” value in experiment [1] (compared to BiP added to DCs alone) is “about doubled”. The “Amount of misfolded protein bound to DCs when added together with BiP” value in experiment [1] (compared to misfolded protein without BiP) is “only slightly increased”. Also, the “Binding of misfolded protein to ECs (MFI ratio)” value was found to be 13.8 with HUVECs (absence of BiP, 30 minutes at 4° C.) and 10.2 in the experiment with HUVECs (presence of BiP).
